biological target: T1, human adenosine A2A receptor (Homo sapiens, UniProt P29274); experiment: Human adenosine A2A receptor [3H]-SCH-583261 binding assay (SPA, CHO cell membranes); conditions: [3H]-SCH-583261 1 nM; membranes of CHO cells expressing the recombinant receptor; Ki by Cheng-Prussoff equation
T1 construct: expressed in transfected cells; host or cells: CHO cells, semliki forest virus expression system; membrane preparation
Procedure: Human Adenosine A2A Receptor
The human adenosine A2A receptor was recombinantly expressed in chinese hamster ovary (CHO) cells using the semliki forest virus expression system. Cells were harvested, washed twice by centrifugation, homogenised and again washed by centrifugation. The final washed membrane pellet was suspended in a Tris (50 mM) buffer containing 120 mM NaCl, 5 mM KCl, 2 mM CaCl2 and 10 mM MgCl2 (pH 7.4) (buffer A). The [^3H]-SCH-583261 (Dionisotti et al., 1997, Br J Pharmacol 121, 353; 1 nM) binding assay was carried out in 96-well plates in the presence of 2.5 μg of membrane protein, 0.5 mg of Ysi-poly-1-lysine SPA beads and 0.1 U adenosine deaminiase in a final volume of 200 μl of buffer A. Non-specific binding was defined using xainthine amine congener (XAC; 2 μM). Compounds were tested at 10 concentrations from 10 μM-0.3 nM. All assays were conducted in duplicate and repeated at least two times. Assay plates were incubated for 1 hour at room temperature before centrifugation and then bound ligand determined using a Packard Topcount scintillation counter. IC50 values were calculated using a non-linear curve fitting program and Ki values calculated using the Cheng-Prussoff equation.

T1 sequence (P29274 whole entry): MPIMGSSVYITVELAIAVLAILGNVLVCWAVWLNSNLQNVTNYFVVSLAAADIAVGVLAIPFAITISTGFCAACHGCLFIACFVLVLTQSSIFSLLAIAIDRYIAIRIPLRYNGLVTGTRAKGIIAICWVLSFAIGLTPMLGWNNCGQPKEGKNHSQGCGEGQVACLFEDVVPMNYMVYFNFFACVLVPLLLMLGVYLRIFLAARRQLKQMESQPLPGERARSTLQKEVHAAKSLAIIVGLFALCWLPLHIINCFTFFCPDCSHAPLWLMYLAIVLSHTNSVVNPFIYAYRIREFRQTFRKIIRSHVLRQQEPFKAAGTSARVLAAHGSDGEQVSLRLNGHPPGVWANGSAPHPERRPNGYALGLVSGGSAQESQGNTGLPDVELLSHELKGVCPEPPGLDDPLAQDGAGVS

**Q.** For `COc1ccc(N2CCCCC2)c2sc(NC(=O)c3ccnc(CN4CCCC4)c3)nc12` [Example 70, N-(4-Methoxy-7-piperidin-1-yl-benzothiazol-2-yl)-2-pyrrolidin-1-yl-methyl-isonicotinamide], which “hA2 (pKi)” value is on record?
**A.** The value was 8.9.

**Q.** How did the “hA2 (pKi)” value turn out when `COc1ccc(N2CCCCC2)c2sc(NC(=O)c3ccnc(CN4CCOCC4)c3)nc12` [Example 71, N-(4-Methoxy-7-piperidin-1-yl-benzothiazol-2-yl)-2-morpholin-4-yl-methyl-isonicotinamide] was run?
**A.** Its value is 8.7.

same assay, conditions: [3H]-SCH-583261 1 nM; membranes of CHO cells expressing the recombinant receptor; Ki by Cheng-Prussoff equation; read-out: hA2 (pKi) (converted)

**Q.** `COCCOc1cc(C(=O)Nc2nc3c(OC)ccc(N4CCOCC4)c3s2)ccn1` [Example 1, 2-(2-Methoxy-ethoxy)-N-(4-methoxy-7-morpholin-4-yl-benzothiazol-2-yl)-isonicotinamide] was tested. Which Ki did it give?
**A.** The Ki was 3.16 nM.

**Q.** With `CCOc1cc(C(=O)Nc2nc3c(OC)ccc(N4CCOCC4)c3s2)ccn1` [Example 3, 2-Ethoxy-N-(4-methoxy-7-morpholin-4-yl-benzothiazol-2-yl)-isonicotinamide] as the molecule, how does the Ki read?
**A.** Its Ki is 3.09 nM.

**Q.** Which Ki does the source give for `COc1ccc(N2CCOCC2)c2sc(NC(=O)c3ccnc(OCc4ccccc4)c3)nc12` [Example 4, 2-Benzyloxy-N-(4-methoxy-7-morpholin-4-yl-benzothiazol-2-yl)-isonicotinamide] here?
**A.** Its Ki is 2.63 nM.

**Q.** `COc1cc(C(=O)Nc2nc3c(OC)ccc(N4CCOCC4)c3s2)ccn1` [Example 5, 2-Methoxy-N-(4-methoxy-7-morpholin-4-yl-benzothiazol-2-yl)-isonicotinamide] was tested. Which Ki did it give?
**A.** The Ki was 2.63 nM.

**Q.** How did the Ki turn out when `COc1ccc(N2CCOCC2)c2sc(NC(=O)c3ccnc(OCc4ccccn4)c3)nc12` [Example 6, N-(4-Methoxy-7-morpholin-4-yl-benzothiazol-2-yl)-2-(pyridin-2-ylmethoxy)-isonicotinamide] was run?
**A.** Its Ki is 1.15 nM.

**Q.** How did the Ki turn out when `COc1ccc(N2CCOCC2)c2sc(NC(=O)c3ccnc(NCCc4ccccn4)c3)nc12` [Example 8, N-(4-Methoxy-7-morpholin-4-yl-benzothiazol-2-yl)-2-(2-pyridin-2-yl-ethylamino)-isonicotinamide] was run?
**A.** The Ki was 1.78 nM.

**Q.** `COc1ccc(N2CCOCC2)c2sc(NC(=O)c3ccnc(N4CCN(C)CC4)c3)nc12` [Example 10, N-(4-Methoxy-7-morpholin-4-yl-benzothiazol-2-yl)-2-(4-methyl-piperazin-1-yl)-isonicotinamide] was tested. Which Ki did it give?
**A.** Its Ki is 0.724 nM.

**Q.** For `COc1ccc(N2CCOCC2)c2sc(NC(=O)c3ccnc(NCc4ccccn4)c3)nc12` [Example 13, N-(4-Methoxy-7-morpholin-4-yl-benzothiazol-2-yl)-2-[(pyridin-2-ylmethyl)-amino]-isonicotinamide], which Ki is on record?
**A.** Its Ki is 1.55 nM.

**Q.** Which Ki does the source give for `COc1ccc(N2CCOCC2)c2sc(NC(=O)c3ccnc(NCCNC(C)=O)c3)nc12` [Example 15, 2-(2-Acetylamino-ethylamino)-N-(4-methoxy-7-morpholin-4-yl-benzothiazol-2-yl)-isonicotinamide] here?
**A.** The Ki was 1.91 nM.

**Q.** `COc1ccc(N2CCOCC2)c2sc(NC(=O)c3ccnc(OCCN4CCCC4=O)c3)nc12` [Example 17, N-(4-Methoxy-7-morpholin-4-yl-benzothiazol-2-yl)-2-[2-(2-oxo-pyrrolidin-1-yl)-ethoxy]-isonicotinamide] was tested. Which Ki did it give?
**A.** Its Ki is 2.34 nM.

**Q.** With `COc1ccc(N2CCOCC2)c2sc(NC(=O)c3ccnc(NCCN4CCOCC4)c3)nc12` [Example 18, N-(4-Methoxy-7-morpholin-4-yl-benzothiazol-2-yl)-2-(2-morpholin-4-yl-ethylamino)-isonicotinamide] as the molecule, how does the Ki read?
**A.** The Ki was 0.617 nM.

**Q.** Which Ki does the source give for `COc1ccc(N2CCOCC2)c2sc(NC(=O)c3ccnc(C4CCCCC4)c3)nc12` [Example 24, 2-Cyclohexyl-N-(4-methoxy-7-morpholin-4-yl-benzothiazol-2-yl)-isonicotinamide] here?
**A.** The Ki was 2.24 nM.

**Q.** How did the Ki turn out when `COc1ccc(N2CCOCC2)c2sc(NC(=O)c3ccnc(N4CCC4)c3)nc12` [Example 26, 2-Azetidin-1-yl-N-(4-methoxy-7-morpholin-4-yl-benzothiazol-2-yl)-isonicotinamide] was run?
**A.** Its Ki is 0.955 nM.

**Q.** How did the Ki turn out when `COc1ccc(N2CCOCC2)c2sc(NC(=O)c3ccnc(N4C[C@@H]5C[C@H]4CO5)c3)nc12` [Example 31, N-(4-Methoxy-7-morpholin-4-yl-benzothiazol-2-yl)-2-{(1S,4S)-2-oxa-5-aza-bicyclo[2.2.1]hept-5-yl}-isonicotinamide] was run?
**A.** Its Ki is 1 nM.

**Q.** Which Ki does the source give for `COc1ccc(C(=O)Nc2nc3c(OC)ccc(N4CCOCC4)c3s2)cn1` [Example 35, 6-Methoxy-N-(4-methoxy-7-morpholin-4-yl-benzothiazol-2-yl)-nicotinamide] here?
**A.** Its Ki is 2 nM.

**Q.** With `COc1ccc(N2CCOCC2)c2sc(NC(=O)c3ccc(NCc4ccccn4)nc3)nc12` [Example 40, N-(4-Methoxy-7-morpholin-4-yl-benzothiazol-2-yl)-6-[(pyridin-2-ylmethyl)-amino]-nicotinamide] as the molecule, how does the Ki read?
**A.** Its Ki is 1.02 nM.

**Q.** For `COc1ccc(N2CCOCC2)c2sc(NC(=O)c3ccc(OC(C)C)nc3)nc12` [Example 44, 6-Isopropoxy-N-(4-methoxy-7-morpholin-4-yl-benzothiazol-2-yl)-nicotinamide], which Ki is on record?
**A.** Its Ki is 3.02 nM.

**Q.** Which Ki does the source give for `COCCNCc1cc(C(=O)Nc2nc3c(OC)ccc(N4CCOCC4)c3s2)ccn1` [Example 47, 2-[(2-Methoxy-ethylamino)-methyl]-N-(4-methoxy-7-morpholin-4-yl-benzothiazol-2-yl)-isonicotinamide] here?
**A.** The Ki was 2.51 nM.

**Q.** For `CCCCNCc1cc(C(=O)Nc2nc3c(OC)ccc(N4CCOCC4)c3s2)ccn1` [Example 52, 2-Butylaminomethyl-N-(4-methoxy-7-morpholin-4-yl-benzothiazol-2-yl)-isonicotinamide], which Ki is on record?
**A.** Its Ki is 1.58 nM.

**Q.** For `COc1ccc(N2CCOCC2)c2sc(NC(=O)c3ccnc(CN4CCCC4)c3)nc12` [Example 54, N-(4-Methoxy-7-morpholin-4-yl-benzothiazol-2-yl)-2-pyrrolidin-1-ylmethyl-isonicotinamide], which Ki is on record?
**A.** The Ki was 2 nM.

**Q.** `COc1ccc(N2CCOCC2)c2sc(NC(=O)c3ccnc(CN4CCOCC4)c3)nc12` [Example 56, N-(4-Methoxy-7-morpholin-4-yl-benzothiazol-2-yl)-2-morpholin-4-ylmethyl-isonicotinamide] was tested. Which Ki did it give?
**A.** The Ki was 1.58 nM.

**Q.** `CNCc1cc(C(=O)Nc2nc3c(OC)ccc(N4CCOCC4)c3s2)ccn1` [Example 58, N-(4-Methoxy-7-morpholin-4-yl-benzothiazol-2-yl)-2-methylaminomethyl-isonicotinamide] was tested. Which Ki did it give?
**A.** Its Ki is 2 nM.

**Q.** `COc1ccc(N2CCOCC2)c2sc(NC(=O)c3ccnc(CNCCCC(=O)OC(C)(C)C)c3)nc12` [Example 62, 4-{[4-(4-Methoxy-7-morpholin-4-yl-benzothiazol-2-yl-carbamoyl)-pyridin-2-yl-methyl]-amino}-butyric Acid tert-Butyl Ester] was tested. Which Ki did it give?
**A.** The Ki was 1.58 nM.

**Q.** How did the Ki turn out when `COC(=O)N(C)Cc1cc(C(=O)Nc2nc3c(OC)ccc(N4CCOCC4)c3s2)ccn1` [Example 65, [4-(4-Methoxy-7-morpholin-4-yl-benzothiazol-2-yl-carbamoyl)-pyridin-2-ylmethyl]-methyl-carbamic Acid Methyl Ester] was run?
**A.** The Ki was 3.16 nM.

**Q.** With `COc1ccc(N2CCOCC2)c2sc(NC(=O)c3ccnc(N4CCS(=O)(=O)CC4)c3)nc12` [Example 73, 2-(1,1-Dioxo-1l6-thiomorpholin-4-yl)-N-(4-methoxy-7-morpholin-4-yl-benzothiazol-2-yl)-isonicotinamide] as the molecule, how does the Ki read?
**A.** Its Ki is 1.82 nM.

**Q.** How did the Ki turn out when `COc1ccc(N2CCOCC2)c2sc(NC(=O)c3ccnc(N4CC(O)C4)c3)nc12` [Example 74, 2-(3-Hydroxy-azetidin-1-yl)-N-(4-methoxy-7-morpholin-4-yl-benzothiazol-2-yl)-isonicotinamide] was run?
**A.** The Ki was 1.35 nM.

**Q.** For `COc1ccc(N2CCOCC2)c2sc(NC(=O)c3ccnc(N4CC(OC)C4)c3)nc12` [Example 75, 2-(3-Methoxy-azetidin-1-yl)-N-(4-methoxy-7-morpholin-4-yl-benzothiazol-2-yl)-isonicotinamide], which Ki is on record?
**A.** Its Ki is 1.91 nM.

**Q.** Which Ki does the source give for `CCOC1CN(c2cc(C(=O)Nc3nc4c(OC)ccc(N5CCOCC5)c4s3)ccn2)C1` [Example 76, 2-(3-Ethoxy-azetidin-1-yl)-N-(4-methoxy-7-morpholin-4-yl-benzothiazol-2-yl)-isonicotinamide] here?
**A.** Its Ki is 1.74 nM.

**Q.** `COc1ccc(N2CCOCC2)c2sc(NC(=O)c3ccnc(OC(C)C)c3)nc12` [Example 77, 2-Isopropoxy-N-(4-methoxy-7-morpholin-4-yl-benzothiazol-2-yl)-isonicotinamide] was tested. Which Ki did it give?
**A.** Its Ki is 2.88 nM.

**Q.** With `COc1ccc(N2CCOCC2)c2sc(NC(=O)c3ccnc(SC)c3)nc12` [Example 80, N-(4-Methoxy-7-morpholin-4-yl-benzothiazol-2-yl)-2-methylsulfanyl-isonicotinamide] as the molecule, how does the Ki read?
**A.** Its Ki is 2.09 nM.

**Q.** With `CCSc1cc(C(=O)Nc2nc3c(OC)ccc(N4CCOCC4)c3s2)ccn1` [Example 81, 2-Ethylsulfanyl-N-(4-methoxy-7-morpholin-4-yl-benzothiazol-2-yl)-isonicotinamide] as the molecule, how does the Ki read?
**A.** The Ki was 2.4 nM.

**Q.** How did the Ki turn out when `COc1ccc(N2CCOCC2)c2sc(NC(=O)c3ccnc(NCc4ccccc4)c3)nc12` [Example 83, 2-Benzylamino-N-(4-methoxy-7-morpholin-4-yl-benzothiazol-2-yl)-isonicotinamide] was run?
**A.** The Ki was 1.74 nM.

**Q.** Which Ki does the source give for `COc1ccc(N2CCOCC2)c2sc(NC(=O)c3ccnc(OC4CCCC4)c3)nc12` [Example 85, 2-Cyclopentyloxy-N-(4-methoxy-7-morpholin-4-yl-benzothiazol-2-yl)-isonicotinamide] here?
**A.** The Ki was 2.95 nM.
